US20150025012A1, “METHODS AND COMPOSITIONS FOR IDENTIFICATION, ASSESSMENT AND TREATMENT OF CANCERS ASSOCIATED WITH HEDGEHOG SIGNALING” (Infinity Pharmaceuticals, Inc., priority 2010, published 2015)

Tests used:
tumor stroma = test: Uptake of imaging marker Gd-DTPA (DCE-MRI) and fluorescent drug and protein in tumors; format: in vivo; conditions: IPI-926 treated tumors
murine Gli1 = test: Gli1 mRNA in sorted stromal cell fractions of tumors; format: in vivo; conditions: Lin+/Lin- and CD31+/CD31- fractions; IPI-926 40 mg/kg 24 hours prior to sacrifice
Excerpt: Since tumor-associated stroma is a complex mixture of different cell types, further experiments have been carried out to determine the identity of the IPI-926-responsive cells. Tumors were obtained from animals treated or untreated with IPI-926 and the cells from within the tumors were subsequently fractionated in the following manner. First, the human cancer cells were removed from the mixture using magnetic beads that were coated with an antibody against the cell surface marker, Ep-CAM. Those cells that remained were the murine stromal cells associated with that tumor. Next, these stromal cells were subsequently separated based on their expression of cell surface markers known to be associated with specific cell lineages. In one sample set, cells were separated based on their expression of a panel of markers specific for cells of the hematopoietic lineage. These cells can be referred to as either Lin− or Lin+. […]
Cells used for sorting experiments were obtained by the following procedure. […] After this incubation, the cells in the flow through and the column were then analyzed for their expression of specific mRNAs by RT-PCR.
RNA for analysis was isolated from cell pellets or tumor tissue using the Ambion RNA 4-PCR isolation kit according to the manufacturer's guidance. […] Relative quantification of the expression data was obtained using the ΔΔCT method as described by Applied Biosystems.

SHh signaling = SHh signaling in pericytic C3H10T1/2 cell cultures (qRT-PCR); format: cell-based, Mouse; conditions: pericytic C3H10T1/2 cells, SHh plus IPI-926
Description: To test this, a model of pericyte cell differentiation, the C3H10T1/2 cells was evaluated. C3H10T1/2 cells were differentiated in vitro into pericytes. C3H10T1/2 cells are believed to be pluripotent mesenchymal cells, which can be induced to differentiate into multiple different cell lineages, including myoblasts, adipocytes, osteoblasts and pericytes (Taylor, et al. (1979) Cell 17(4):771-9). In this case, cells are cultured to confluence and then allowed to differentiate over the course of 5 additional days of culture. At this time, the cells are seen to express high levels of CD13, an established marker of pericytes.
We subsequently explored if SHh signaling was intact in these pericyte cultures. In a typical experiment, confluent C3H10T1/2 cells were allowed to differentiate into pericyte-like cells. After 5 days in culture, SHh with or without IPI-926 were added to the cells in the presence of normal serum. On day 8 of culture, cells were re-fed SHh with or without IPI-926 and shifter to low serum. qRT-PCR analysis was performed on day 9. SHh signaling was detected in these cells as measured by Gli1 mRNA upregulation; the SHh signaling was inhibited by IPI-926 (FIG. 28). Cells were treated on day 8; Gli1 mRNA levels were evaluated in control samples, after SHh addition, after SHh and IPI-926 and cells treated with IPI-926 alone as shown in FIG. 28. […]

Bx-PC3 tumors = test: Growth of Bx-PC3 tumors in mice; format: in vivo; conditions: single agents and combination
Excerpt: Bevacizumab, a monoclonal antibody, exerts its activity by neutralizing VEGF, a factor important of the proliferation and survival of endothelial cells. […] In the same study, the relative effect of these agents was explored by measuring the mRNA expression of PECAM-1, a marker of endothelial cells and RGS5, a marker of pericytes. […] The role of the vasculature and its supporting pericyte population in the mechanism of action of IPI-926 continues to be explored.
For in vivo studies, tumors were grown in male NCR-nu/nu mice by subcutaneous injection of 5×10^6 cells. Tumor growth was monitored using calipers. When tumors reached an approximate size of 200 mm^3, tumor bearing animals were randomized into treatment arms and administered agents or vehicles as described.

Hedgehog pathway = conditions: after single administration; cited from earlier work
[1] = system: Basal Cell Carcinoma (BCC) lesion; test: BCC lesion in a patient before and after treatment; format: in vivo, human; conditions: six months after treatment
[2] = system: patient derived tumor xenograft models; test: Tumor growth in patient derived tumor xenograft models; format: in vivo, Mice
Excerpt: Mice received daily treatment of IPI-926, M-F, for 6-10 weeks (n=10-15 per group).

[3] = daily treatment M-F for 6-10 weeks, multiple models

For `CC1=C2C[C@H]3[C@@H](CC[C@@H]4C[C@H](NS(C)(=O)=O)CC[C@@]43C)[C@@H]2CC[C@@]2(C1)O[C@@H]1C[C@H](C)CN[C@H]1[C@H]2C` [IPI-926], the “uptake of imaging marker Gd-DTPA and fluorescent drug and protein (doxorubicin, lectin)” value (tumor stroma) was “increased uptake”, the “murine Gli1 inhibition in stromal cell fractions” value (murine Gli1) was “greatest degree of murine Gli1 inhibition was present in both the Lin-population and CD31-population” and the “SHh-induced Gli1 mRNA upregulation” value (SHh signaling) was “inhibited”. The “SHh-induced downregulation of RGS5 mRNA” value (SHh signaling) was “reversed”, the “activity on the growth of Bx-PC3 tumors” value (Bx-PC3 tumors) was “approximately the same single agent activity” and the “Hedgehog pathway inhibition in stromal cells” value (Hedgehog pathway) was “rapid and sustained Hedgehog pathway inhibition”. For the same molecule, the “size and morphology of BCC lesion” value [1] was “dramatic reduction”, the changes in morphology ([2]; FIGS. 22A-22D micrographs) was “loss of tumor cells and calcification of the chondroid matrix” and the “mean tumor growth inhibition” value [2, 3] was 43%. For the same molecule, the “range of tumor growth inhibition” value [2, 3] was 33-52%.
